What all share (assay): growth of human tumour cells (NCI), 48 h
In experiment [1] the test system is MDA-MB-231 breast.
For experiment [2], the system named is NCI-H460 lung.
In experiment [3] the test system is HCC-2998 colon.
The test system of experiment [4] is UACC-62 melanoma.
Experiment [5] has as its system TK-10 renal.
The subject of experiment [6] is SK-OV-3 ovarian.
Experiment [7] has as its system OVCAR-4 ovarian.
In experiment [8] the test system is DU-145 prostate.
For experiment [9], the system named is MDA-MB-435.
Experiment [10] has as its system MALME-3M melanoma.

Structures are written as SMILES.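 All cell lines were grown in 96-well plates and treated with compound for 48 hours. GI50: concentration for 50% inhibition of growth. TGI is the concentration that stops growth completely.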

In the case of `CC/C(Cc1ccccc1)=C(\c1ccc(OCCN2CCCC2)cc1)c1ccc(OC(=O)NCc2ccccc2)cc1`, the GI50 was 1.84 µM in [1]; 1.89 µM in [2]; 1.51 µM in experiment [3]; 1.81 µM in [4]; 1.76 µM in experiment [5]; 11.6 µM in [6]. In addition, the GI50 in experiment [7] was 1.86 µM; in experiment [8], 2.14 µM; in experiment [9] it was 1.67 µM; in [10], 1.68 µM. Moreover, the TGI was determined as 3.35 µM in experiment [1]; 3.42 µM in [2]; 2.94 µM in experiment [3]; 3.24 µM in experiment [4]; 3.5 µM in experiment [5]; 24.6 µM in experiment [6]. Also, the TGI was determined as 3.85 µM in [7], 4.7 µM in [8], 3.12 µM in experiment [9] and 3.19 µM in experiment [10].
Take `O=C(/C=C/C=C/c1ccccc1)c1ccco1`: the GI50 in [1] was 22.7 µM; in [2], 21 µM; in experiment [3], 15 µM; in [4], 14.6 µM; in [5] it was 16.9 µM; in [6], 28.8 µM. The GI50 in experiment [7] is 23.1 µM; in experiment [8], 12.5 µM; in experiment [9], 13.1 µM; in [10], 12.6 µM. Further, the TGI in experiment [1] stood at 57.1 µM; in [2] it was 47.5 µM; in experiment [3], 28.3 µM; in [4], 28.4 µM; in [5] it was 40.1 µM; in [6], 84.6 µM. Further, the TGI in experiment [7] is more than 100 µM; in experiment [8], 25.4 µM; in [9], 29.2 µM; in experiment [10] it was 28.6 µM.
As to `Cc1ccc([N+](=O)[O-])c2c(NCCNC(=O)c3cc(C(=O)NCCNc4ccnc5c(C)ccc([N+](=O)[O-])c45)n(C)n3)ccnc12`, the TGI in [1] was more than 84.8 µM; in experiment [2], more than 100 µM; in experiment [3] it was more than 100 µM; in experiment [4] it was more than 83 µM; in [5] it was more than 100 µM; in [6] it was more than 100 µM. For the same compound, the TGI in experiment [7] was more than 73.3 µM; in experiment [8], more than 100 µM; in experiment [9], more than 56.1 µM; in experiment [10] it was more than 73.2 µM.

The values are drawn from PubChem BioAssay (NCI).
